The text below walks through data of patent US20120202794A1 (priority 2011, published 2012).

A value given as a limit tells only on which side of the number the result lay.

As usually defined, the EC90 is the concentration at which the effect reaches the 90% level.

Series [1] can be described thus: Cell cytotoxicity assay (MTS), CC90 as reported in Table 1, cell line not stated. It counts as cell-based. As to conditions: human; MTS assay; 8 days incubation; cell line not given. An outline of the steps:
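Compounds, serially diluted from 100 μM, were incubated 8 days at 37° C with Huh7, HepG2 or BxPC3 (2×10^3 cells/well) or CEM (5×10^3 cells/well). Viability was read by MTS, 2 h, absorbance 490 nm. CC90 (90% inhibition) was taken against untreated cells.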
(Formazan colour is commonly taken as a measure of viable cells.)

The test system of another series is HCV Replicon 1b. In words: HCV inhibition assay, HCV replicon 1b (Clone A or ET-lunet cells; RT-PCR or luciferase reporter). As to conditions: Hepatitis C virus, 96 h, HCV replicon 1b; 4 days incubation; read-out: Replicon 1b potency EC90. It counts as cell-based. An outline of the steps: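 Clone A (1500/well) or ET-lunet (3000/well) replicon cells treated with serially diluted compounds (0.5% DMSO, no G418) for 4 days at 37 °C. HCV RNA measured by one-step RT-PCR normalized to rRNA (ΔΔCt) or by luciferase luminescence versus DMSO controls; EC50/EC90 by curve fitting.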

`CC(C)C[C@H]1C(=O)N[C@@H](c2ccc(Cl)cc2)CN1C(=O)c1cc(-c2ccc(F)cc2)on1` [Compound 358, (3S,6S)-6-(4-chlorophenyl)-4-(5-(4-fluorophenyl)isoxazole-3-carbonyl)-3-isobutyl-piperazin-2-one]: the CC90 at 8 days in series [1] was > 10000 nM. For the same molecule, the EC90 in the series on HCV Replicon 1b is 1530 nM.
Take `CC(C)C[C@H]1C(=O)N[C@@H](c2ccc(Cl)cc2)CN1C(=O)[C@@H]1C[C@H]1c1ccccc1` [Compound 360, (3S,6S)-6-(4-chlorophenyl)-3-isobutyl-4-((1R,2R)-2-phenylcyclopropanecarbonyl)-piperazin-2-one]: the CC90 at 8 days in series [1] was > 10000 nM. Further, the EC90 in the series on HCV Replicon 1b came out at 3640 nM.
Taken in the same sequence, the figures for `Cc1ccccc1[C@H]1CN(C(=O)c2cc(-c3ccc(F)cc3)on2)[C@@H](CC(C)C)C(=O)N1` [Compound 361, (3S,6S)-4-(5-(4-fluorophenyl)isoxazole-3-carbonyl)-3-isobutyl-6-(o-tolyl)piperazin-2-one] were > 10000 nM and 1420 nM.
On to `Cc1ccccc1[C@H]1CN(C(=O)[C@@H]2C[C@H]2c2ccccc2)[C@@H](CC(C)C)C(=O)N1` [Compound 363, (3S,6S)-3-isobutyl-4-((1R,2R)-2-phenylcyclopropanecarbonyl)-6-(o-tolyl)piperazin-2-one], for which, in series [1], the CC90 at 8 days is > 10000 nM. The concentration for an effect of 90% (EC90) in the series with HCV Replicon 1b amounted to 2070 nM.
Taken in the same sequence, the figures for `CC(C)C[C@H]1C(=O)N[C@@H](c2ccc(C(F)(F)F)cc2)CN1C(=O)[C@@H]1C[C@H]1c1ccccc1` [Compound 364, (3S,6S)-3-isobutyl-4-((1R,2R)-2-phenylcyclopropanecarbonyl)-6-(4-(trifluoro-methyl)phenyl)piperazin-2-one] were > 10000 nM and > 10000 nM.
Regarding `CC(C)C[C@H]1C(=O)N[C@@H](c2ccc(C(F)(F)F)cc2)CN1C(=O)c1cc(-c2ccc(F)cc2)on1` [Compound 366, (3S,6S)-4-(5-(4-fluorophenyl)isoxazole-3-carbonyl)-3-isobutyl-6-(4-(trifluoromethyl)-phenyl)piperazin-2-one], the CC90 at 8 days in series [1] was > 10000 nM. In the series on HCV Replicon 1b, the EC90 came to 6000 nM.
Taken in the same sequence, the figures for `CC(C)C[C@H]1C(=O)N[C@@H](c2cccc(F)c2)CN1C(=O)c1cc(-c2ccc(F)cc2)on1` [Compound 367, (3S,6S)-6-(3-fluorophenyl)-4-(5-(4-fluorophenyl)isoxazole-3-carbonyl)-3-isobutylpiperazin-2-one] were > 10000 nM and 270 nM.
For `CC(C)C[C@H]1C(=O)N[C@@H](c2cccc(F)c2)CN1C(=O)[C@@H]1C[C@H]1c1ccccc1` [Compound 369, (3S,6S)-6-(3-fluorophenyl)-3-isobutyl-4-((1R,2R)-2-phenylcyclopropanecarbonyl)-piperazin-2-one] the same measures were > 10000 nM and 1630 nM.
On to `CC(C)C[C@H]1C(=O)N[C@@H](c2ccccc2Cl)CN1C(=O)c1noc(-c2ccc(F)cc2)n1` [Compound 371, (3S,6S)-6-(2-chlorophenyl)-4-(5-(4-fluorophenyl)-1,2,4-oxadiazole-3-carbonyl)-3-isobutylpiperazin-2-one], for which the CC90 at 8 days in series [1] is > 10000 nM. In the series with HCV Replicon 1b, the EC90 was 470 nM.
For `CC(C)C[C@H]1C(=O)N[C@@H](c2ccccc2F)CN1C(=O)c1cc(-c2ccc(F)cc2)no1` [Compound 372, (3S,6S)-6-(2-fluorophenyl)-4-(3-(4-fluorophenyl)isoxazole-5-carbonyl)-3-isobutylpiperazin-2-one] the same measures were > 10000 nM and 700 nM.
Taken in the same sequence, the figures for `CC(C)C[C@H]1C(=O)N[C@@H](c2ccccc2F)CN1C(=O)/C=C/c1ccc(F)cc1F` [Compound 374, (3S,6S)-4-((E)-3-(2,4-difluorophenyl)acryloyl)-6-(2-fluorophenyl)-3-isobutylpipera-zin-2-one] were > 10000 nM and 750 nM.
Turning to `CC(C)C[C@H]1C(=O)N[C@@H](c2ccccc2)CN1C(=O)c1noc(-c2ccc(F)cc2)c1F` [Compound 376, (3S,6S)-4-(4-fluoro-5-(4-fluorophenyl)isoxazole-3-carbonyl)-3-isobutyl-6-phenyl-piperazin-2-one], in series [1], the CC90 at 8 days is > 10000 nM. In addition, the EC90 in the series on HCV Replicon 1b was 500 nM.
Taken in the same sequence, the figures for `CC(C)C[C@H]1CN(C(=O)c2noc(-c3ccc(F)cc3)c2F)[C@@H](CC(C)C)C(=O)N1` [Compound 379, (3S,6S)-4-(4-fluoro-5-(4-fluorophenyl)isoxazole-3-carbonyl)-3,6-diisobutylpiperazin-2-one] were > 10000 nM and 210 nM.
For `CC(C)C[C@H]1C(=O)N[C@@H](c2ccccc2F)CN1C(=O)c1noc(-c2ccc(F)cc2)c1F` [Compound 380, (3S,6S)-4-(4-fluoro-5-(4-fluorophenyl)isoxazole-3-carbonyl)-6-(2-fluorophenyl)-3-isobutylpiperazin-2-one] the same measures were > 10000 nM and 180 nM.
Taken in the same sequence, the figures for `CC(C)C[C@H]1C(=O)N[C@@H](C2CCCC2)CN1C(=O)c1noc(-c2ccc(F)cc2)c1F` [Compound 381, (3S,6S)-6-cyclopentyl-4-(4-fluoro-5-(4-fluorophenyl)isoxazole-3-carbonyl)-3-isobutylpiperazin-2-one] were > 10000 nM and 250 nM.
`CC(C)C[C@H]1C(=O)N[C@@H](C2CCCCC2)CN1C(=O)c1noc(-c2ccc(F)cc2)c1F` [Compound 382, (3S,6S)-6-cyclohexyl-4-(4-fluoro-5-(4-fluorophenyl)isoxazole-3-carbonyl)-3-isobutylpiperazin-2-one]: the CC90 at 8 days in series [1] is > 10000 nM. For the same molecule, in the series on HCV Replicon 1b, the EC90 amounted to 370 nM.
For `CC(C)C[C@H]1CN(C(=O)c2noc(-c3ccc(F)cc3F)c2F)[C@@H](CC(C)C)C(=O)N1` [Compound 383, (3S,6S)-4-(5-(2,4-difluorophenyl)-4-fluoroisoxazole-3-carbonyl)-3,6-diisobutyl-piperazin-2-one] the same measures were > 10000 nM and 710 nM.
Taken in the same sequence, the figures for `CC(C)C[C@H]1C(=O)N[C@@H](c2ccccc2)CN1C(=O)c1noc(-c2ccc(F)cc2F)c1F` [Compound 385, (3S,6S)-4-(5-(2,4-difluorophenyl)-4-fluoroisoxazole-3-carbonyl)-3-isobutyl-6-phenylpiperazin-2-one] were > 10000 nM and 500 nM.
For `CC(C)C[C@H]1C(=O)N[C@@H](c2ccccc2F)CN1C(=O)c1noc(-c2ccc(F)cc2F)c1F` [Compound 386, (3S,6S)-4-(5-(2,4-difluorophenyl)-4-fluoroisoxazole-3-carbonyl)-6-(2-fluorophenyl)-3-isobutylpiperazin-2-one] the same measures were > 10000 nM and 570 nM.
`CCC[C@H]1CN(C(=O)c2noc(-c3ccc(F)cc3F)c2F)[C@@H](CC(C)C)C(=O)N1` [Compound 387, (3S,6S)-4-(5-(2,4-difluorophenyl)-4-fluoroisoxazole-3-carbonyl)-3-isobutyl-6-propylpiperazin-2-one]: the CC90 at 8 days in series [1] is > 10000 nM. Moreover, in the series with HCV Replicon 1b, the EC90 was determined as 260 nM.
Taken in the same sequence, the figures for `CC(C)C[C@H]1C(=O)N[C@@H](C2CCCC2)CN1C(=O)c1noc(-c2ccc(F)cc2F)c1F` [Compound 388, (3S,6S)-6-cyclopentyl-4-(5-(2,4-difluorophenyl)-4-fluoroisoxazole-3-carbonyl)-3-isobutylpiperazin-2-ono] were > 10000 nM and 670 nM.
Taken in the same sequence, the figures for `CC(C)C[C@H]1C(=O)N[C@@H](C2CCCCC2)CN1C(=O)c1noc(-c2ccc(F)cc2F)c1F` [Compound 389, (3S,6S)-6-cyclohexyl-4-(5-(2,4-difluorophenyl)-4-fluoroisoxazole-3-carbonyl)-3-isobutylpiperazin-2-one] were > 10000 nM and 1450 nM.
For `CC(C)C[C@H]1C(=O)N[C@@H](c2ccccc2)CN1C(=O)c1noc(-c2ccc(F)c(F)c2)c1F` [Compound 390, (3S,6S)-4-(5-(3,4-difluorophenyl)-4-fluoroisoxazole-3-carbonyl)-3-isobutyl-6-phenylpiperazin-2-one] the same measures were > 10000 nM and 2050 nM.
In the case of `CC(C)C[C@H]1C(=O)N[C@@H](c2ccccc2F)CN1C(=O)c1noc(-c2ccc(F)c(F)c2)c1F` [Compound 392, (3S,6S)-4-(5-(3,4-difluorophenyl)-4-fluoroisoxazole-3-carbonyl)-6-(2-fluorophenyl)-3-isobutylpiperazin-2-one], the CC90 at 8 days in series [1] is > 10000 nM. The EC90 in the series on HCV Replicon 1b was 1910 nM.
For `CCC[C@H]1CN(C(=O)c2noc(-c3ccc(F)c(F)c3)c2F)[C@@H](CC(C)C)C(=O)N1` [Compound 393, (3S,6S)-4-(5-(3,4-difluorophenyl)-4-fluoroisoxazole-3-carbonyl)-3-isobutyl-6-propylpiperazin-2-one] the same measures were > 10000 nM and 260 nM.
For `CC(C)C[C@H]1CN(C(=O)c2noc(-c3ccc(F)c(F)c3)c2F)[C@@H](CC(C)C)C(=O)N1` [Compound 394, (3S,6S)-4-(5-(3,4-difluorophenyl)-4-fluoroisoxazole-3-carbonyl)-3,6-diisobutyl-piperazin-2-one] the same measures were > 10000 nM and 660 nM.
Turning to `CC(C)C[C@H]1C(=O)N[C@@H](C2CCCC2)CN1C(=O)c1noc(-c2ccc(F)c(F)c2)c1F` [Compound 395, (3S,6S)-6-cyclopentyl-4-(5-(3,4-difluorophenyl)-4-fluoroisoxazole-3-carbonyl)-3-isobutylpiperazin-2-one], in series [1], the CC90 at 8 days was > 10000 nM. In addition, the EC90 with HCV Replicon 1b was determined as 1020 nM.
